Test results from patent publication US20250388867A1, “COMPOSITION AND METHOD FOR CULTURING ORGANOIDS” (ORGANOIDSCIENCES, LTD., priority 2017, published 2025).

Legend:
[1] = tested on: human large intestinal organoids; experiment: Formation of large intestinal organoids (Example 6); format: cell-based; settings: for organoid formation: 5 days
Text: (§1) Large intestinal tissue was isolated from a human patient during surgery and used in experiments for forming organoids. The tissue was cut longitudinally from a proximal end to a distal end, and also laterally cut into pieces of about 5 mm length. The tissue pieces, which were isolated crypts, were washed with ice-cooled Dulbecco's phosphate-buffered saline (DPBS) until the supernatant liquid was sufficiently clear. Then, the crypts were isolated by treating with a Gentle Cell Dissociation Reagent (StemCell Technologies, Cambridge, MA), and filtering with a cell strainer. The crypts were mixed in collagen gel, and placed in each well of a well plate with the composition comprising the compound of the chemical formula 1 (namely, RS-246204). After keeping in 37° C. humidification incubator (5% CO2) for 5 days, the formed organoids were observed, and optical microscope photos were taken for analysis.
(§2) The control and experimental groups were classified as follows depending on the components of the medium composition used.
• ENR group: Basal media supplemented with EGF (E), Noggin (N) and R-spondin (R) was used to form human large intestinal organoids. • EN+RS-246204 group: Basal media supplemented with EGF (E), Noggin (N) and RS-246204 (25 or 50 μM) was used to form human large intestinal organoids.
• RS-246204 group: Basal media supplemented with RS-246204 (25 or 50 μM) was used to form human large intestinal organoids.
Noggin, thiazovivin, CHIR99021, and a pharmaceutically acceptable salt of CHIR99021 was not used in both the control and experimental groups.

[2] = tested on: small intestinal organoids; experiment: Budding characteristics analysis (counts of budding and non-budding organoids); format: cell-based, mouse; settings: 4 days
Text: The morphological characteristic of the small intestinal organoids is that they grow while budding. In order to check that the budding rate of the small intestinal organoids grown in the RS-246204-added culture solution (hereinafter, RS-246204 culture solution) is similar to that grown in ENR culture solution, the total number of organoids, the number of budding organoids, and the number of non-budding organoids were counted in the wells culturing for 4 days. The rate of budding organoids and non-budding organoids grown in the culture solution containing 50 μM of RS-246204 is about 1:1, which is similar to the rate of organoids grown in the ENR culture solution (see FIG. 2C).

adenoid organoids = experiment: Formation of organoids (Example 8), adenoid; format: cell-based, human; settings: 1 μM
Text: (§3) Large intestinal tissue, adenoid tissue, and pancreatic cancer tissue were isolated from a patient during surgery and used in experiments for preparing and culturing organoids. Salivary tissue was isolated from a mouse and used in experiments for preparing and culturing organoids.
(§4) Each of the tissues was cut longitudinally from a proximal end to a distal end, and also laterally cut into pieces of about 5 mm length. The piece of the tissues obtained was washed with ice-cooled Dulbecco's phosphate-buffered saline (DPBS) until the supernatant liquid was sufficiently clear. Then, the tissues were isolated by treating with a Gentle Cell Dissociation Reagent (StemCell Technologies, Cambridge, MA), and filtering with a cell strainer. The isolated tissues were mixed in collagen gel, and placed in each well of a well plate. After keeping in 37° C. humidification incubator (5% CO2), the cultured organoids were observed, and optical microscope photos were taken for analysis.

[3] = tested on: small intestinal organoids; experiment: RT-PCR and qRT-PCR analysis of lineage markers; format: cell-based, mouse
Experimental: In order to confirm whether lineage markers specific to the small intestinal organoids are expressed when cultured with RS-246204, RNA analysis was performed. The small intestinal organoids cultured in ENR and RS-246204 culture solutions, respectively, for 4 days were collected. RNA was extracted and cDNA was synthesized, and then RT-PCR was performed. As a marker for intestinal stem cells, goblet cells, paneth cells, enteroendocrine cells and enterocyte, RT-PCR was performed using RNA primers for Lgr5, muc-1 and muc-2, defesing-5, chromogranin A (ChgA), and villin, respectively.
For quantitative analysis, qRT-PCR analysis was performed. AccuPower 2X Greenstar qPCR MasterMix (Bioneer) and Thermal Cycler Dice® Real Time System III (Takara, Japan) were used, and the reaction was performed for 10 seconds at 95° C. (denaturation), 15 seconds at 57° C. (annealing), and 20 seconds at 72° C. (extension). The RNA primers excluded Muc1 among those used in the RT-PCR test, changed the enterocyte marker from villin to Intestinal Alkaline Phosphatase (IAP), and used the same sequence for the rest.

salivary organoids = experiment: Formation of organoids (Example 8), salivary; format: cell-based, mouse
Text: as §3, §4

[4] = tested on: small intestinal organoids; experiment: Immunofluorescence analysis; format: cell-based, mouse; settings: organoids cultured in ENR and RS-246204 culture solutions
[5] = tested on: human large intestinal organoids; experiment: Formation of large intestinal organoids, RS-246204 concentration series (Example 7); format: cell-based
Text: as §1, with “keeping in a 37° C.” for “keeping in 37° C.”, “were observed, optical microscope” for “were observed, and optical microscope”, “taken for analysis, and organoid counts were analyzed using Leopard iX software.” for “taken for analysis.”
as §2
• RS 0 μM group: Basal media (Advanced DMEM/F12 media) not supplemented with RS-246204 (also referred to as “RS”) was used to form human large intestinal organoids. • RS 2.5 μM group: Basal media (Advanced DMEM/F12 media) supplemented with RS-246204 2.5 μM was used to form human large intestinal organoids.
• RS 5 μM group: Basal media (Advanced DMEM/F12 media) supplemented with RS-246204 5[…] μM was used to form human large intestinal organoids. • RS 50 μM group: Basal media (Advanced DMEM/F12 media) supplemented with RS-246204 50 μM was used to form human large intestinal organoids. • RS 100 μM group: Basal media (Advanced DMEM/F12 media) supplemented with RS-246204 100 μM was used to form human large intestinal organoids.

[6] = tested on: small intestinal organoids; experiment: Screening of compound library using organoid proliferation measurement; format: cell-based, mouse; settings: 50 μM in EN culture solution, 4 days
Text: Small intestinal crypts were isolated from a mouse to be used in experiments for preparing and culturing small intestinal organoids. Specifically, the small intestine was isolated after killing a 5-7 weeks old C57BL/6 mouse weighing 20-25 g by cervical vertebrae dislocation. The small intestine was cut longitudinally from a proximal end to a distal end, and also laterally cut into pieces of about 5 mm length. The piece of small intestine obtained was washed with ice-cooled Dulbecco's phosphate-buffered saline (DPBS) until the supernatant liquid was sufficiently clear. Then, the crypts were isolated by treating with a Gentle Cell Dissociation Reagent (StemCell Technologies, Cambridge, MA), and filtering with a cell strainer.
Compounds which can replace R-spondin in organoid cultures were screened for 8,364 types of compounds included in a representative library of the Korea Chemical Bank.
The small intestinal crypts derived from the small intestine of a 7-week-old C57BL/6 mouse isolated in Example 1 were mixed in Matrigel, and placed in each well of a 96-well plate. […]
The number of living organoids, the number of budding organoids, and the circumference of each organoid were measured using the optical microscope photos. […] The compounds were ranked based on the measured values, and then 295 candidate compounds were selected to be used in a second screening. […]

[7] = tested on: small intestinal organoids; experiment: Organoid circumference by date (growth efficiency); format: cell-based, mouse; settings: RS-246204 culture solution vs ENR culture solution, photographed every day
Experimental: In order to check whether the growth efficiency of the small intestinal organoids grown in the RS-246204 culture solution has a difference, the small intestinal organoids cultured in each culture solution were photographed by an optical microscope every day. The circumference of the individual organoid according to the condition of culture medium and date was measured, and converted into percentage.

[8] = tested on: small intestinal organoids; experiment: Subculture of small intestinal organoids; format: cell-based, mouse; settings: RS-246204 culture solution
[9] = tested on: pancreatic cancer organoids; experiment: Formation of organoids (Example 8), pancreatic cancer; format: cell-based, human
Text: as §3, §4

[10] = tested on: small intestinal organoids; experiment: CFTR agonist Forskolin analysis (function maintenance); format: cell-based, mouse; settings: 4 days culture, then forskolin 5 μM, 1 hour
Experimental: In order to check whether functions of small intestinal epithelial cells are maintained in the small intestinal organoids cultured using the RS-246204 culture solution, CFTR agonist Forskolin analysis was performed. The forskolin is a compound which stimulates ion channels to open, thereby promoting the release of moisture. In case of small intestinal organoids, moisture gathers into the lumen by the forskolin stimulation and changes into a large spherical shape, thereby confirming the maintenance of the function of epithelial cells. After culturing for 4 days in RS-246204 culture solution and ENR culture solution, respectively, it was replaced with a culture solution to which forskolin was added at a concentration of 5 μM. Photographs were taken by an optical microscope at an interval of 10 minutes for 1 hour immediately after the replacement. Based on the optical micrographs, the free curve tool of Dixi eXcope (Korea) program was used to measure the circumference of each organoid per hour and analyze the change in circumference.

[11] = tested on: large intestinal organoids; experiment: Formation of organoids (Example 8), large intestinal; format: cell-based, human
Text: as §3, §4

SMILES: Cn1c(Sc2ccc3ccccc3n2)nc2c1c(=O)[nH]c(=O)n2C [RS-246204]
- organoid formation ([1]; EN+RS-246204 group: basal media with EGF, Noggin and RS-246204 (25 or 50 μM)): human intestinal organoids were formed
- quantity of organoid calculated from the confluency ([1]; RS-246204 group (25 or 50 μM) compared with ENR or EN+RS-246204 groups): no significant difference
- organoid formation ([1]; RS-246204 group: basal media supplemented with RS-246204 only (25 or 50 μM)): human intestinal organoids were formed
- killing of organoids ([2]; concentration higher than 50 μM): most organoids were killed
- rate of non-budding organoids ([2]; concentration lower than 50 μM): increased
- dose dependence of formation and proliferation (adenoid organoids; 2 μM or 5 μM): form and proliferate in a dose-dependent manner
- formation and proliferation effects (adenoid organoids; 2 μM or 5 μM RS-246204): excellent formation and proliferation effects
- presence of intestinal stem cells, goblet cells, paneth cells, enteroendocrine cells and enterocyte (RT-PCR markers) ([3]; 4 days culture, Lgr5, muc-1, muc-2, defesing-5, ChgA, villin): all these cells were present
- relative amount of markers expressed (qRT-PCR) ([3]; ENR vs RS-246204 culture solutions): little difference between the ENR and RS-246204 culture solutions
- growth after subculturing (salivary organoids): can grow even after subculturing
- dose dependence of formation and proliferation (salivary organoids; 1.25 μM, 2.5 μM or 5 μM): form and proliferate in a dose-dependent manner
- formation and proliferation effects (salivary organoids; 1.25 μM, 2.5 μM or 5 μM RS-246204): excellent formation and proliferation effects
- expression of Muc-2, lysozyme and Ki67 (immunofluorescence staining) [4]: confirm the expression of Muc-2, lysozyme, and Ki67
- quantity of organoid calculated from the confluency ([5]; RS 2.5 μM compared with RS 0 μM group): no significant difference
- organoid formation ([5]; RS 2.5 μM in Advanced DMEM/F12, 5 days): human intestinal organoids were formed
- organoid formation ([5]; RS-246204 5, 50 or 100 μM in Advanced DMEM/F12, 5 days): human intestinal organoids were formed
- growth of small intestinal organoids ([6]; among the final seven candidate compounds): highest growth of small intestinal organoids among the candidate materials
- growth and maintenance of organoids compared with R-spondin ([6]; numerical data and visual confirmation): could grow and maintain organoids most similar to R-spondin
- growth efficiency and increase rate of the circumference according to date [7]: similarly observed
- growth and maintenance after the subculture [8]: growth and maintenance were also possible even after the subculture
- possibility to subculture ([8]; same manner as ENR culture solution): possible to subculture
- growth after subculturing [9]: can grow even after subculturing
- formation and proliferation effects ([9]; 30 μM RS-246204): excellent formation and proliferation effects
- function of epithelial cells after forskolin stimulation [10]: performed well as epithelial cells
- budding (crypt) formation [11]: grow while forming budding (crypt)
- growth after subculturing [11]: can grow even after subculturing
- formation and proliferation effects ([11]; 20 μM RS-246204): excellent formation and proliferation effects
